Assay results from patent US10202343B2, “MIF modulators” (YALE UNIVERSITY, priority 2008, dated 2019).
Where two headings read alike, the source gives them in different places.

Legend:
[1] = biological target: T1, MIF-CD74 Binding (biotin-labeled recombinant human MIF, recombinant human MIF receptor CD74 ectodomain) (Homo sapiens, UniProt P14174); test: MIF-CD74 binding (capture) assay; set-up: concentration of C74 % MaxInhib (number after @): unit not given here; conditions: for concentration of C74 % MaxInhib (number after @) / C74 % MaxInhib: Table 18; for C74 % MaxInhib / CD74 % MaxInhib: number before @
T1 sequence (P14174 2-115 limits assumed): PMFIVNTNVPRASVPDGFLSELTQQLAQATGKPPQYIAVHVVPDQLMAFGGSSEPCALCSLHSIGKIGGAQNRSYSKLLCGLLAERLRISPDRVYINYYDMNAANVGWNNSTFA

[2] = biological target: T2, Human MIF (MIF tautomerase activity) (Homo sapiens, UniProt P14174); test: HPP tautomerase assay; type: biochemical; conditions: for IC50: read-out: HPP IC50; for HPP % MaxInhib: Table 7, data cell c6; for concentration of HPP % MaxInhib (number after @): Table 7
T2 construct: made in house
T2 sequence (P14174 2-115 limits assumed): T1 sequence (P14174 2-115 limits assumed)
Procedure: The HPP assay used was adapted to the microtiter plate format. […] Dilutions of the enzyme were prepared in 50 mM sodium phosphate buffer, 1 mM EDTA, pH 6.5. HPP was obtained from Aldrich. A stock solution of 60 mM HPP in ethanol is prepared and kept for maximally 4 hours on ice. The working solution (600 μM) of the substrate was prepared by diluting an aliquot of the stock solution with 50 mM sodium phosphate buffer, 1 mM EDTA, pH 6.5. […] Inhibitor and enzyme solutions were pipetted manually using an Eppendorf 12-channel pipette. Addition of substrate to start the reaction was performed with an Igel 96 pipetting station (OpalJena, Jena, Germany), which allows simultaneous addition of fluid to all 96 wells of the plates. Optical density (OD) was determined using a SPECTRAmax 250 reader (Molecular Devices). The reader was operated with the SoftmaxPro 2.6.1 software. Assay: Three wells of the microtiter plates were filled with buffer only, to allow for blanking. […] The last step was performed using the 96-channel pipetting device. The plate was then immediately (i.e. within a few seconds) transferred manually to the SPECTRAmax 250 reader and the optical density was determined (310 nm). From the data obtained, IC50 values were calculated using Excel® and XLfit® software.

COc1cccc(-n2sc3ccc(F)cc3c2=O)c1 [Compound 38]
Capture IC50 ([1]; Table 3): agonist | CD74 IC50 ([1]; Table 6, data cell c9): agonist | IC50 ([2]; Table 3): 8 µM | IC50 ([2]; Table 6, data cell c7, listed as MIF-113): 8 µM

COC(=O)CC1CC(c2ccc(O)cc2)=NO1 (stereo not drawn) [ISO-1, reference compound]
activity in the capture assay [1]: inactive | activity in the HPP tautomerase assay [2]: inactive

Cc1cccc(Cc2cn(-c3ccc(O)cc3)nn2)c1 [MIF-079]
concentration of C74 % MaxInhib (number after @) [1]: 0.078 | C74 % MaxInhib [1]: 30% | IC50 ([2]; Table 18): 475 µM

COc1ccc2oc(C(=O)N3CCc4ccccc43)cc2c1 [MIF-088]
concentration of CD74 % MaxInhib (number after @) ([1]; Table 14): 0.24 µM | CD74 % MaxInhib ([1]; Table 14): 30% | concentration of HPP Max Inhib (number after @) ([2]; Table 14): 5 µM | HPP Max Inhib ([2]; Table 14, number before @): 23%

c1ccc(-c2nc3ccccc3s2)cc1 [MIF-137]
concentration of CD74 % MaxInhib (number after @) ([1]; Table 8): 0.078 µM | HPP IC50 ([2]; Table 8): agonist

Clc1ccc(-c2nc3ccc(Cl)cc3o2)cc1 [MIF-121]
concentration of CD74 % MaxInhib (number after @) ([1]; Table 7): 0.078 µM | CD74 % MaxInhib ([1]; Table 7, data cell c7): 27% | HPP % MaxInhib ([2]; number before @): 43%

CNC(=O)c1nc2ccccc2n1Cc1ccccc1 [MIF-065]
concentration of CD74 % MaxInhib (number after @) ([1]; Table 5): 1.87 µM | CD74 % MaxInhib ([1]; Table 5): 16% | HPP Max Inhib ([2]; Table 5): 13%

c1ccc(Cn2c(-c3cscn3)nc3ccccc32)cc1 [Compound 17, 4-(1-benzyl-1H-benzo[d]imidazol-2-yl)thiazole]
concentration of CD74 % MaxInhib (number after @) ([1]; Table 5): 0.039 µM | IC50 ([1]; Table 5, read-out: CD74 IC50): > 1000 µM | concentration of HPP Max Inhib (number after 'at') ([2]; Table 5): 5 µM

Cc1ccc2c(c1)CCN2C(=O)c1cc2ccccc2o1 [MIF-094]
concentration of CD74 % MaxInhib (number after @) ([1]; Table 14): 0.95 µM | CD74 % MaxInhib ([1]; Table 14): 33% | IC50 ([2]; Table 14): 760 µM

CC(=O)OCc1cccc(-n2sc3cc(F)ccc3c2=O)c1 [Compound 33]
Capture % Max. Inhib. ([1]; Table 3): 12% | CD74 % MaxInhib ([1]; Table 6, data cell c8): 12% | IC50 ([2]; Table 3): 2.3 µM | IC50 ([2]; Table 6, data cell c7): 2.3 µM

O=c1c2cc([N+](=O)[O-])ccc2sn1-c1ccc(Cl)cc1 [Compound 34]
Capture % Max. Inhib. ([1]; Table 3): 11% | CD74 % MaxInhib ([1]; Table 6, data cell c8): 11% | IC50 ([2]; Table 3): 6.2 µM | IC50 ([2]; Table 6, data cell c7): 6.2 µM

Fc1ccc2nn(-c3ccc(Cl)cc3)cc2c1 [MIF-129]
concentration of CD74 % MaxInhib (number after @) ([1]; Table 11): 0.12 µM | CD74 % MaxInhib ([1]; Table 11): 27% | IC50 ([2]; Table 11): 490 µM

Oc1ccc(-n2cc(Cc3ccccc3)nn2)cc1F [MIF-069]
concentration of C74 % MaxInhib (number after @) [1]: 0.0078 | C74 % MaxInhib [1]: 14% | IC50 ([2]; Table 18): 760 µM

O=c1c2cc(F)ccc2sn1-c1ccc(Cl)cc1 [MIF-141]
CD74 IC50 ([1]; Table 6, data cell c9): agonist | IC50 ([2]; Table 6, data cell c7): 5.6 µM

O=C(c1cc2ccccc2o1)c1cc2cc(O)ccc2o1 [MIF-072]
concentration of CD74 % MaxInhib (number after @) ([1]; Table 13): 0.24 µM | CD74 % MaxInhib ([1]; Table 13): 9% | concentration of HPP Max Inhib (number after @) ([2]; Table 13): 1000 µM | HPP Max Inhib ([2]; Table 13, data cell c5, number before @): 30%

O=c1c2ccc(Br)cc2sn1-c1ccc(Cl)cc1 [Compound 36]
Capture % Max. Inhib. ([1]; Table 3): 10% | CD74 % MaxInhib ([1]; Table 6, data cell c8): 10% | IC50 ([2]; Table 3): 11 µM | IC50 ([2]; Table 6, data cell c7): 11 µM

CN(C)C(=O)c1nc2ccccc2n1Cc1ccccc1 [MIF-063]
concentration of CD74 % MaxInhib (number after @) ([1]; Table 5): 1.87 µM | CD74 % MaxInhib ([1]; Table 5): 27% | HPP Max Inhib ([2]; Table 5): 0%

Fc1ccc2[nH]c(-c3ccc(Cl)cc3)cc2c1 [MIF-128]
concentration of CD74 % MaxInhib (number after @) ([1]; Table 10): 0.0039 µM | CD74 % MaxInhib ([1]; Table 10): 20% | IC50 ([2]; Table 10): 280 µM

c1ccc(Cn2c(Cc3ccccn3)nc3ccccc32)cc1 [Compound 19]
concentration of CD74 % MaxInhib (number after @) ([1]; Table 5): 1.87 µM | CD74 % MaxInhib ([1]; Table 5): 40% | HPP Max. Inhib. ([2]; Table 2): 38%

COc1ccccc1-n1sc2ccc(Cl)cc2c1=O [Compound 31]
Capture % Max. Inhib. ([1]; Table 3): 7% | CD74 % MaxInhib ([1]; Table 6, data cell c8): 7% | IC50 ([2]; Table 3): 6.6 µM | IC50 ([2]; Table 6, data cell c7): 6.6 µM

COc1cccc(Cn2c(=O)oc3ccc(OC)cc32)c1 [Compound 3, 5-methoxy-3-(3-methoxy-benzyl)-3H-benzooxazol-2-one]
concentration of CD74 % MaxInhib (number after @) ([1]; Table 4): 1.87 µM | concentration of HPP Max Inhib (number after @) ([2]; Table 4): > 500 µM | HPP Max Inhib ([2]; Table 4, number before @): 41%

COc1cccc(C(=O)c2cn(-c3ccc(O)cc3)nn2)c1 [MIF-076]
concentration of C74 % MaxInhib (number after @) [1]: 0.0078 | C74 % MaxInhib [1]: 12% | IC50 ([2]; Table 18): 790 µM

Cc1ccc2c(c1)oc(=O)n2Cc1ccccc1 [Compound 2, 3-benzyl-6-methyl-3H-benzooxazol-2-one]
concentration of CD74 % MaxInhib (number after @) ([1]; Table 4): 1.87 µM | CD74 % MaxInhib ([1]; Table 4): 25% | IC50 ([2]; Table 1): 3.4 µM

Oc1ccc(-n2cc(Cc3ccccc3O)nn2)cc1 [MIF-071]
concentration of C74 % MaxInhib (number after @) [1]: 0.24 | C74 % MaxInhib [1]: 9% | IC50 ([2]; Table 18): 1000 µM

O=c1c2cc(F)ccc2sn1-c1cccc(O)c1 [Compound 32]
Capture % Max. Inhib. ([1]; Table 3): 13% | CD74 % MaxInhib ([1]; Table 6, data cell c8): 13% | IC50 ([2]; Table 3): 5.9 µM | IC50 ([2]; Table 6, data cell c7): 5.9 µM

Fc1ccc2cc(-c3ccc(Cl)cc3)[nH]c2c1 [MIF-127]
concentration of CD74 % MaxInhib (number after @) ([1]; Table 10): 0.34 µM | CD74 % MaxInhib ([1]; Table 10): 22% | IC50 ([2]; Table 10): 240 µM

Oc1ccc(Cc2cn(-c3ccc(O)cc3)nn2)cc1 [MIF-087]
concentration of C74 % MaxInhib (number after @) [1]: 0.078 | C74 % MaxInhib [1]: 23% | IC50 ([2]; Table 18): 690 µM

Cc1ccc2oc(-c3ccc(Cl)cc3)nc2c1 [MIF-124]
concentration of CD74 % MaxInhib (number after @) ([1]; Table 7): 0.078 µM | CD74 % MaxInhib ([1]; Table 7, data cell c7): 11% | concentration of HPP % MaxInhib (number after @) [2]: 1000 µM | HPP % MaxInhib ([2]; number before @): 29%

COc1ccccc1Cc1cn(-c2ccc(O)cc2)nn1 [MIF-070]
concentration of C74 % MaxInhib (number after @) [1]: 0.0078 | C74 % MaxInhib [1]: 14% | concentration of HPP Max Inhib (number after @) ([2]; Table 18): 1000 | HPP Max Inhib ([2]; Table 18, number before @): 35%

COc1ccccc1Cn1cc(-c2ccc(O)cc2)nn1 [MIF-033]
CD74 IC50 ([1]; Table 19, data cell c5): agonist | HPP IC50 ([2]; Table 19, data cell c6): agonist

O=C(c1cc2ccccc2o1)N1CCc2cc(F)ccc21 [MIF-096]
concentration of CD74 % MaxInhib (number after @) ([1]; Table 14): 1.87 µM | CD74 % MaxInhib ([1]; Table 14): 19% | IC50 ([2]; Table 14): 1360 µM

CC(=O)Oc1ccc2nc(-c3cc4ccccc4o3)oc(=O)c2c1 [Compound 22]
IC50 ([1]; Table 2, read-out: MIF-CD74 IC50): 2.5 µM | IC50 ([1]; Table 5, read-out: CD74 IC50): 2.5 µM | IC50 ([1]; Table 15, read-out: CD74 IC50): 2.5 µM | IC50 ([2]; Table 15): 730 µM

O=c1c2cc(F)c(F)cc2sn1-c1ccc(Cl)cc1 [MIF-143]
CD74 IC50 ([1]; Table 6, data cell c9): agonist | IC50 ([2]; Table 6, data cell c7): 4.9 µM

N#Cc1ccc(-n2sc3cc(F)ccc3c2=O)cc1 [MIF-133]
concentration of CD74 % MaxInhib (number after @) ([1]; Table 6): 0.078 µM | IC50 ([2]; Table 6, data cell c7): 6.4 µM

NC(=O)c1nc2ccccc2n1Cc1ccccc1 [MIF-062]
concentration of CD74 % MaxInhib (number after @) ([1]; Table 5): 1.87 µM | CD74 % MaxInhib ([1]; Table 5): 25% | HPP Max Inhib ([2]; Table 5): 16%

COc1ccc(-n2sc3ccc(F)cc3c2=O)cc1 [MIF-142]
CD74 IC50 ([1]; Table 6, data cell c9): agonist | IC50 ([2]; Table 6, data cell c7): 6.5 µM

O=c1c2ccc(F)cc2sn1-c1cccc(Cl)c1 [MIF-132]
concentration of CD74 % MaxInhib (number after @) ([1]; Table 6): 0.078 µM | CD74 % MaxInhib ([1]; Table 6, data cell c8): 20% | IC50 ([2]; Table 6, data cell c7): 5 µM

COc1cccc(Cc2cn(-c3ccc(O)cc3)nn2)c1 [MIF-074]
concentration of C74 % MaxInhib (number after @) [1]: 0.24 | C74 % MaxInhib [1]: 8% | concentration of HPP Max Inhib (number after @) ([2]; Table 18): 1000 | HPP Max Inhib ([2]; Table 18, number before @): 40%

Clc1ccc2nc(-c3ccccc3)oc2c1 [MIF-120]
concentration of CD74 % MaxInhib (number after @) ([1]; Table 7): 0.078 µM | CD74 % MaxInhib ([1]; Table 7, data cell c7): 11% | concentration of HPP % MaxInhib (number after @) [2]: 0.1 µM | HPP % MaxInhib ([2]; number before @): 13%

Cc1ccc2c(c1)N(C(=O)c1cc3ccccc3o1)CC2 [MIF-095]
concentration of CD74 % MaxInhib (number after @) ([1]; Table 14): 0.039 µM | CD74 % MaxInhib ([1]; Table 14): 33% | IC50 ([2]; Table 14): 910 µM
